Experimental data published in patent US10350206B2, “Benzyl substituted indazoles as BUB1 inhibitors” (Bayer Pharma Aktiengesellschaft, priority 2014, dated 2019).

How the values were obtained:
[1] = target: T1, catalytic domain of human Bub1 (amino acids 704-1085) (Homo sapiens, UniProt O43683); assay: Bub1 kinase assay (TR-FRET); format: biochemical; conditions: 10 μM ATP, 60 min reaction, pH 7.5; read-out: Biological Assay 1: Bub1 kinase assay median IC50
T1 construct: catalytic domain of human Bub1 (amino acids 704-1085); His6 (N); made in house; host or cells: Hi5 insect cells
T1 sequence (O43683 704-1085): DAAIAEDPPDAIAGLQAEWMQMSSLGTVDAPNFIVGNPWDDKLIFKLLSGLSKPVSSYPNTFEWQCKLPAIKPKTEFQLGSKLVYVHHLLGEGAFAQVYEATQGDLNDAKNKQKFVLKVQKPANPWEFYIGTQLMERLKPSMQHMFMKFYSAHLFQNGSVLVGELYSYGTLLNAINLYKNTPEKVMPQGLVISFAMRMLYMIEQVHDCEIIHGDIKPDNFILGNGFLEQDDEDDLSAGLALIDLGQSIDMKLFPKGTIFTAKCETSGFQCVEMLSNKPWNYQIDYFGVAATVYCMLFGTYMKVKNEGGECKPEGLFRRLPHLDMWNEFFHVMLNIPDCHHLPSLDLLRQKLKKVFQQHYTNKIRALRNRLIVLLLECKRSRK
Description: To this end, 100-fold concentrated compound solutions (in DMSO) were previously prepared by serial dilution (1:3.4) of 2 mM stocks in a clear low volume 384-well source microtiter plate (Greiner Bio-One, Frickenhausen, Germany), from which 50 nL of compounds were transferred into a black low volume test microtiter plate from the same supplier. […] The resulting mixture (5 μL final volume) was incubated at 22° during 60 min., and the reaction was stopped by the addition of 5 μL of an aqueous EDTA-solution (50 mM EDTA, in 100 mM HEPES pH 7.5 and 0.2% (w/v) bovine serum albumin) which also contained the TR-FRET detection reagents (0.2 μM streptavidin-XL665 [Cisbio Bioassays, Codolet, France] and 1 nM anti-phosho-Serine antibody [Merck Millipore, cat. #35-001] and 0.4 nM LANCE EU-W1024 labeled anti-mouse IgG antibody [Perkin-Elmer, product no. AD0077, alternatively a Terbium-cryptate-labeled anti-mouse IgG antibody from Cisbio Bioassays can be used]). The stopped reaction mixture was further incubated 1 h at 22° C. in order to allow the formation of complexes between peptides and detection reagents. Subsequently, the amount of product was evaluated by measurement of the resonance energy transfer from the Eu-chelate-antibody complex recognizing the Phosphoserine residue to the streptavidin-XL665 bound to the biotin moiety of the peptide. […] IC50 values were calculated by fitting the normalized inhibition data to a 4-parameter logistic equation (Minimum, Maximum, IC50, Hill; Y=Max+(Min−Max)/(1+(X/IC50)Hill)).

[2] = tested on: HeLa human cervical tumor cells; assay: Proliferation assay (HeLa cell line); format: cell-based; conditions: 96 h, 4 days incubation, crystal violet, read-out: Biological Assay 2: Proliferation assay (HeLa cell line) median IC50
Description: Human tumour cells were originally obtained from the American Type Culture Collection (ATCC), the Deutsche Sammlung von Mikroorganismen und Zellkulturen (DSMZ, German Collection of Microorganisms and Cell Cultures), or Epo GmbH Berlin. Cultivated HeLa human cervical tumor cells (DSMZ ACC-57) were plated at a density of 3000 cells/well in a 96-well multititer plate in 200 μL of growth medium supplemented 10% fetal calf serum. After 24 hours, the cells of one plate (zero-point plate) were stained with crystal violet (see below), while the medium of the other plates was supplemented with the test substances in various concentrations (0 μM, as well as in the range of 0.001-10 μM; the final concentration of the solvent dimethyl sulfoxide was adjusted to 0.1%) using a Hewlett-Packard HP D300 Digital Dispenser. The cells were incubated for 4 days in the presence of test substances. […] After three washing cycles of the fixed cells with water, the plates were dried at room temperature. The cells were stained by adding 100 μL/measuring point of a 0.1% crystal violet solution (pH 3.0). After three washing cycles of the stained cells with water, the plates were dried at room temperature. The dye was dissolved by adding 100 μL/measuring point of a 10% acetic acid solution. […] The change of cell number, in percent, was calculated by normalization of the measured values to the absorption values of the zero-point plate (=0%) and the absorption of the untreated (0 μm) cells (=100%). The IC50 values were determined by means of a 4 parameter fit.

[3] = tested on: HeLa human cervical tumor cells; assay: Proliferation Assay (HeLa+Paclitaxel); format: cell-based; conditions: 3 nM paclitaxel, test substance 92 hours; read-out: Biological Assay 3: Proliferation Assay (HeLa + Paclitaxel) IC50
Description: Proliferation Assay (HeLa+Paclitaxel):
Cultivated HeLa human cervical tumor cells (DSMZ ACC-57) were plated at a density of 3000 cells/well in a 96-well multititer plate in 200 μL of growth medium supplemented 10% fetal calf serum. After 24 hours, the cells of one plate (zero-point plate) were stained with crystal violet (see below). The medium of the other plates was supplemented with 3 nM of paclitaxel (Sigma-Aldrich) and the cells were incubated at 37° C. After 4 hours the test substances were added in various concentrations (0 μM, as well as in the range of 0.001-10 μM; the final concentration of the solvent dimethyl sulfoxide was adjusted to 0.1%) using a Hewlett-Packard HP D300 Digital Dispenser. The cells were incubated for another 92 hours at 37° C. in the presence of test substances. […] After three washing cycles of the fixed cells with water, the plates were dried at room temperature. The cells were stained by adding 100 μL/measuring point of a 0.1% crystal violet solution (pH 3.0). After three washing cycles of the stained cells with water, the plates were dried at room temperature. The dye was dissolved by adding 100 μL/measuring point of a 10% acetic acid solution. […] The change of cell number, in percent, was calculated by normalization of the measured values to the absorption values of the zero-point plate (=0%) and the 5 absorption of the untreated (0 μm) cells (=100%). The IC50 values were determined by means of a 4 parameter fit.

[4] = tested on: Bub1 kinase (histone 2A phosphorylation); assay: H2A Formation-Assay (cell-based mechanistic assay, co-treatment with Nocodazole); conditions: 16 h, Nocodazole 1 μg/ml together with test compound for 16 h; read-out: Biological Assay 4.1: H2A Formation IC50
Description: Biological Assay 4.1: Formation-Assay
Cell-Based Mechanistic Assay: Changes of Phosphorylation Status of Histone 2A by Inhibition of Kinase Activity of Bub1
This assay determines the suppression of histone 2A phosphorylation by a Bub1 kinase inhibitor during co-treatment with Nocodazole. 25000 cells (cells were ordered from ATCC) were seeded in 96 well plate for 5 h at 37° C. Cells were treated with Nocodazole (1 μg/ml) and varying concentrations (between 3 nM and 10 μM) of test compounds for 16h. Cells were fixed (20 min, Fixing solution R&D), washed three times with PBS and blocked with Odyssey blocking buffer before incubating with the primary antibody against phosphorylated H2A (5 μg/ml ABIN482721) overnight at […]. After washing, secondary IRDye-labeled antibody mix with cell stains was added for 1h and washed again with PBS. Plates were scanned with LiCor Odyssey Infrared Imager CLx at 800 nm for P-H2A and at 700 nm for cell stains Draq5/Sapphire. The quotient of 800 nm and 700 nm for Nocodazole only treated cells was set as 100% and the quotient of 800 nm and 700 nm of untreated cells was set as 0%. […] The IC50 values were determined by means of a 4 parameter fit.
(§1) Histone H2A is an immediate intracellular substrate of Bub1 kinase. Determination of the phosphorylation status of Histone H2A provides a direct measure of the intracellular activity of Bub1 kinase.

[5] = tested on: Bub1 kinase (pre-induced phospho-histone 2A); assay: H2A Abrogation-Assay (cell-based mechanistic assay, pre-treatment with Nocodazole); conditions: Nocodazole 1 μg/ml 16 h, then test compound 1 h; read-out: Biological Assay 4.2: H2A Abrogation IC50
Description: Biological Assay 4.2: Abrogation-Assay
Cell-Based Mechanistic Assay: Changes of Phosphorylation Status of Pre-Induced Phospho-Histone 2A by Inhibition of Kinase Activity of Bub1
This assay measures the inhibition of histone 2A phosphorylation, which was induced by pre-treatment of the cells with Nocodazole, by a Bub1 kinase inhibitor. 25000 cells (cells were ordered from ATCC) were seeded in 96 well plate for 5 h at 37° C. Cells were treated with Nocodazole (1 μg/ml). After 16h varying concentrations (between 3 nM and 10 μM) of test compounds were added and the cells were incubated for another 1h. Cells were fixed (20 min, Fixing solution R&D), washed three times with PBS and blocked with Odyssey blocking buffer before incubating with the primary antibody against phosphorylated H2A (5 μg/ml ABIN482721) overnight at 2-8° C. After washing, secondary IRDye-labeled antibody mix with cell stains was added for 1h and washed again with PBS. Plates were scanned with LiCor Odyssey Infrared Imager CLx at 800 nm for P-H2A and at 700 nm for cell stains Draq5/Sapphire. The quotient of 800 nm and 700 nm for Nocodazole only treated cells was set as 100% and the quotient of 800 nm and 700 nm of untreated cells was set as 0%. […] The IC50 values were determined by means of a 4 parameter fit.
as §1

| Structure (SMILES) | IC50 [1] [nM] | IC50 [2] [nM] | IC50 [3] [nM] | IC50 [4] [nM] | IC50 [5] [nM] |
| --- | --- | --- | --- | --- | --- |
| COc1cnccc1Nc1nc(-c2nn(Cc3c(F)cc(OC[C@H](C)CO)cc3F)c3ccccc23)ncc1OC [Example 2-3-7, (2R)-3-{3,5-difluoro-4-[(3-{5-methoxy-4-[(3-methoxypyridin-4-yl)amino]pyrimidin-2-yl}-1H-indazol-1-yl)methyl]phenoxy}-2-methylpropan-1-ol] | 28 | 6900 | 110 | 63 | 0.31 |
| COc1cnc(-c2nn(Cc3c(F)cc(OC[C@H](C)CO)cc3F)c3ccccc23)nc1Nc1ccnc(C)n1 [Example 2-3-4, (2R)-3-{3,5-difluoro-4-[(3-{5-methoxy-4-[(2-methylpyrimidin-4-yl)amino]pyrimidin-2-yl}-1H-indazol-1-yl)methyl]phenoxy}-2-methylpropan-1-ol] | 43 | > 10000 | 150 | 2.4 | 1.9 |
| COc1cnc(-c2nn(Cc3c(F)cc(OCCCO)cc3F)c3ccccc23)nc1Nc1cc(C)ncc1C [Example 2-3-1, 3-{4-[(3-{4-[(2,5-dimethylpyridin-4-yl)amino]-5-methoxypyrimidin-2-yl}-1 H-indazol-1-yl)methyl]-3,5-difluorophenoxy}propan-1-ol] | 15 | > 10000 | 72 | 38 | 0.72 |
| COc1cnc(-c2nn(Cc3c(F)cc(OCCO)cc3F)c3ccccc23)nc1Nc1ccnc(NC(=O)NC2CC2)c1 [Example 2-1-16, 1-cyclopropyl-3-{4-[(2-{1-[2,6-difluoro-4-(2-hydroxyethoxy)benzyl]-1H-indazol-3-yl}-5-methoxypyrimidin-4-yl)amino]pyridin-2-yl}urea] | 17 | 3100 | 300 | 87 | 74 |
| COc1cnc(-c2nn(Cc3c(F)cc(OCCCO)cc3F)c3ccccc23)nc1Nc1ccnc(C)n1 [Example 2-3-3, 3-{3,5-difluoro-4-[(3-{5-methoxy-4-[(2-methylpyrimidin-4-yl)amino]pyrimidin-2-yl}-1H-indazol-1-yl)methyl]phenoxy}propan-1-ol] | 55 | > 10000 | 200 | 210 | 310 |
| COc1cnc(-c2nn(Cc3c(F)cc(OCCO)cc3F)c3ccccc23)nc1Nc1ccncc1Cl [Example 2-1-1, 2-{4-[(3-{4-[(3-chloropyridin-4-yl)amino]-5-methoxypyrimidin-2-yl}-1 H-indazol-1-yl)methyl]-3,5-difluorophenoxy}ethanol] | 13 | 4100 | 240 | 94 | 10 |
| COc1cnc(-c2nn(Cc3c(F)cc(OCCO)cc3F)c3ccccc23)nc1Nc1cc(NC(C)=O)ncc1C [Example 2-1-14, N-{4-[(2-{1-[2,6-difluoro-4-(2-hydroxyethoxy)benzyl]-1H-indazol-3-yl}-5-methoxypyrimidin-4-yl)amino]-5-methylpyridin-2-yl}acetamide] | 420 | 1500 | 1100 | 39 | 11 |
